Assay in all cases: AK assay 384-well format, Prestwick library screening
For test [1], the system named is A. baumannii strain 98-37-09. The test is classed as cell-based, Acinetobacter baumannii. As to conditions: 50 μM final drug concentration; for fold induction at 50 µM: Acinetobacter baumannii, 983709, 3 h.
For test [2], the system named is K. pneumoniae. The test is classed as cell-based, Klebsiella pneumoniae. As to conditions: 50 μM final drug concentration; for fold induction at 50 µM: Klebsiella pneumoniae, 3 h.
Test [3] has as its system P. aeruginosa. The test is classed as cell-based, Pseudomonas aeruginosa. As to conditions: 50 μM final drug concentration; for fold induction at 50 µM: Pseudomonas aeruginosa, 3 h.
Test [4] relates to E. cloacae. The test is classed as cell-based, Enterobacter cloacae. The note with it: 50 μM final drug concentration; for fold induction at 50 µM: Enterobacter cloacae, 3 h.
For test [5], the system named is S. aureus strain USA300-0114. The test is classed as cell-based, Staphylococcus aureus. As to conditions: 50 μM final drug concentration; for fold induction at 50 µM: Staphylococcus aureus, USA300, 3 h.
The test system of test [6] is E. faecium. The test is classed as cell-based, Enterococcus faecium. As to conditions: 50 μM final drug concentration; for fold induction at 50 µM: Enterococcus faecium, 3 h.
Test [7] deals with E. coli. The test is classed as cell-based, Escherichia coli. As to conditions: 50 μM final drug concentration; for fold induction at 50 µM: Escherichia coli, 3 h.

Counter-ions that a name gives are not always drawn. Like-named read-outs stand apart in the source and are kept apart here.

On to `CCCCCN(CCCCC)C(=O)C(CCC(=O)O)NC(=O)c1ccc(Cl)c(Cl)c1` (stereo not shown) [Lorglumide sodium salt], for which the fold induction at 50 µM in test [1] (planktonic, cutoff for positive-scoring molecules 3-fold increase, read-out: AK-based Prestwick Library Screening Results, A. baumannii (fold increase in extracellular AK activity)) worked out at 0.8; in test [2] (planktonic, cutoff for positive-scoring molecules 3-fold increase, read-out: AK-based Prestwick Library Screening Results, K. pneumoniae (fold increase in extracellular AK activity)), 0.7; in test [3] (planktonic, cutoff for positive-scoring molecules 3-fold increase, read-out: AK-based Prestwick Library Screening Results, P. aeruginosa (fold increase in extracellular AK activity)), 0.9; in test [4] (planktonic, cutoff for positive-scoring molecules 3-fold increase, read-out: AK-based Prestwick Library Screening Results, E. cloacae (fold increase in extracellular AK activity)), 1.3; in test [5] (planktonic, cutoff for positive-scoring molecules 3-fold increase, read-out: AK-based Prestwick Library Screening Results, S. aureus (fold increase in extracellular AK activity)), 0.3; in test [6] (planktonic, cutoff for positive-scoring molecules 3-fold increase, read-out: AK-based Prestwick Library Screening Results, E. faecium (fold increase in extracellular AK activity)), 1. Moreover, the fold induction at 50 µM in test [7] (planktonic, cutoff for positive-scoring molecules 3-fold increase, read-out: AK-based Prestwick Library Screening Results, E. coli (fold increase in extracellular AK activity)) is 0.9.

Regarding `CC[C@H](C)C(=O)O[C@H]1C[C@@H](C)C=C2C=C[C@H](C)[C@H](CC[C@@H]3C[C@@H](O)CC(=O)O3)[C@H]21` [Lovastatin], the fold induction at 50 µM in test [1] (planktonic A. baumannii, cutoff for positive-scoring molecules 3-fold increase, read-out: AK-based Prestwick Library Screening Results, A. baumannii (increase in extracellular AK activity)) was 1; in test [2] (planktonic K. pneumoniae, cutoff for positive-scoring molecules 3-fold increase, read-out: AK-based Prestwick Library Screening Results, K. pneumoniae (increase in extracellular AK activity)), 0.8; in test [3] (planktonic P. aeruginosa, cutoff for positive-scoring molecules 3-fold increase, read-out: AK-based Prestwick Library Screening Results, P. aeruginosa (increase in extracellular AK activity)) it was 0.8; in test [4] (planktonic E. cloacae, cutoff for positive-scoring molecules 3-fold increase, read-out: AK-based Prestwick Library Screening Results, E. cloacae (increase in extracellular AK activity)), 1.2; in test [5] (planktonic S. aureus, cutoff for positive-scoring molecules 3-fold increase, read-out: AK-based Prestwick Library Screening Results, S. aureus (increase in extracellular AK activity)), 0.3; in test [6] (planktonic E. faecium, cutoff for positive-scoring molecules 3-fold increase, read-out: AK-based Prestwick Library Screening Results, E. faecium (increase in extracellular AK activity)), 1. Moreover, the fold induction at 50 µM in test [7] (planktonic E. coli, cutoff for positive-scoring molecules 3-fold increase, read-out: AK-based Prestwick Library Screening Results, E. coli (increase in extracellular AK activity)) was found to be 1.

For the compound `CN1CCN(C2=Nc3ccccc3Oc3ccc(Cl)cc32)CC1` [Loxapine succinate], the fold induction at 50 µM amounted to 1 in test [1] (planktonic A. baumannii, 384-well, cutoff for positive-scoring molecules 3-fold increase, read-out: AK-based Prestwick Library Screening Results: A. baumannii (increase in extracellular AK activity)); 1 in test [2] (planktonic K. pneumoniae, 384-well, cutoff for positive-scoring molecules 3-fold increase, read-out: AK-based Prestwick Library Screening Results: K. pneumoniae (increase in extracellular AK activity)); 0.9 in test [3] (planktonic P. aeruginosa, 384-well, cutoff for positive-scoring molecules 3-fold increase, read-out: AK-based Prestwick Library Screening Results: P. aeruginosa (increase in extracellular AK activity)); 1.3 in test [4] (planktonic E. cloacae, 384-well, cutoff for positive-scoring molecules 3-fold increase, read-out: AK-based Prestwick Library Screening Results: E. cloacae (increase in extracellular AK activity)); 1.1 in test [5] (planktonic S. aureus, 384-well, cutoff for positive-scoring molecules 3-fold increase, read-out: AK-based Prestwick Library Screening Results: S. aureus (increase in extracellular AK activity)); 0.9 in test [6] (planktonic E. faecium, 384-well, cutoff for positive-scoring molecules 3-fold increase, read-out: AK-based Prestwick Library Screening Results: E. faecium (increase in extracellular AK activity)). The fold induction at 50 µM in test [7] (planktonic E. coli, 384-well, cutoff for positive-scoring molecules 3-fold increase, read-out: AK-based Prestwick Library Screening Results: E. coli (increase in extracellular AK activity)) is 1.

As to `COC1=C[C@@H]2C3=C([C@@H]2C1=O)[C@@H](NC(C)=O)CCc1cc(OC)c(OC)c(OC)c13` [Lumicolchicine gamma], the “AK-based Prestwick Library Screening Results, A. baumannii (fold increase in extracellular AK activity)” value in test [1] (planktonic, […]) is 1.2. Besides, the “AK-based Prestwick Library Screening Results, K. pneumoniae (fold increase in extracellular AK activity)” value in test [2] (planktonic, […]) came to 1.0. In addition, the “AK-based Prestwick Library Screening Results, P. aeruginosa (fold increase in extracellular AK activity)” value in test [3] (planktonic, […]) was determined as 1.1. Also, the “AK-based Prestwick Library Screening Results, E. cloacae (fold increase in extracellular AK activity)” value in test [4] (planktonic, […]) worked out at 1.4. The “AK-based Prestwick Library Screening Results, S. aureus (fold increase in extracellular AK activity)” value in test [5] (planktonic, […]) stood at 0.9. The “AK-based Prestwick Library Screening Results, E. faecium (fold increase in extracellular AK activity)” value in test [6] (planktonic, […]) was 1.0. Also, in test [7] (planktonic, […]), the “AK-based Prestwick Library Screening Results, E. coli (fold increase in extracellular AK activity)” value is 1.1.

`O=c1cc(-c2ccc(O)c(O)c2)oc2cc(O)cc(O)c12` [Luteolin]: the fold induction at 50 µM in test [1] (cutoff for positive-scoring molecules 3-fold increase, read-out: AK-based Prestwick Library Screening Results, A. baumannii (fold increase in extracellular AK activity)) amounted to 0.3; in test [2] (cutoff for positive-scoring molecules 3-fold increase, read-out: AK-based Prestwick Library Screening Results, K. pneumoniae (fold increase in extracellular AK activity)) it was 0.5; in test [3] (cutoff for positive-scoring molecules 3-fold increase, read-out: AK-based Prestwick Library Screening Results, P. aeruginosa (fold increase in extracellular AK activity)), 0.5; in test [4] (cutoff for positive-scoring molecules 3-fold increase, read-out: AK-based Prestwick Library Screening Results, E. cloacae (fold increase in extracellular AK activity)), 1.6; in test [5] (cutoff for positive-scoring molecules 3-fold increase, read-out: AK-based Prestwick Library Screening Results, S. aureus (fold increase in extracellular AK activity)), 0.2; in test [6] (cutoff for positive-scoring molecules 3-fold increase, read-out: AK-based Prestwick Library Screening Results, E. faecium (fold increase in extracellular AK activity)), 0.5. Besides, the fold induction at 50 µM in test [7] (cutoff for positive-scoring molecules 3-fold increase, read-out: AK-based Prestwick Library Screening Results, E. coli (fold increase in extracellular AK activity)) came to 0.4.

With `CN(C)[C@@H]1C(O)=C(C(=O)NCNCCCC[C@H](N)C(=O)O)C(=O)[C@@]2(O)C(O)=C3C(=O)c4c(O)cccc4[C@@](C)(O)[C@H]3C[C@@H]12` [Lymecycline], the fold induction at 50 µM in test [1] (planktonic A. baumannii, […], read-out: AK-based Prestwick library screening result, A. baumannii (fold increase in extracellular AK activity)) amounted to 0.8; in test [2] (planktonic K. pneumoniae, […], read-out: AK-based Prestwick library screening result, K. pneumoniae (fold increase in extracellular AK activity)), 0.7; in test [3] (planktonic P. aeruginosa, […], read-out: AK-based Prestwick library screening result, P. aeruginosa (fold increase in extracellular AK activity)), 0.7; in test [4] (planktonic E. cloacae, […], read-out: AK-based Prestwick library screening result, E. cloacae (fold increase in extracellular AK activity)), 1.2; in test [5] (planktonic S. aureus, […], read-out: AK-based Prestwick library screening result, S. aureus (fold increase in extracellular AK activity)) it was 0.7; in test [6] (planktonic E. faecium, […], read-out: AK-based Prestwick library screening result, E. faecium (fold increase in extracellular AK activity)), 1. In test [7] (planktonic E. coli, […], read-out: AK-based Prestwick library screening result, E. coli (fold increase in extracellular AK activity)), the fold induction at 50 µM turned out to be 0.8.

Regarding `C#C[C@]1(O)CC[C@H]2[C@@H]3CCC4=CCCC[C@@H]4[C@H]3CC[C@@]21C` [Lynestrenol], the fold induction at 50 µM in test [1] (384-well format, cutoff for positive-scoring molecules 3-fold increase, read-out: AK-based Prestwick Library Screening Results, A. baumannii (increase in extracellular AK activity)) was 1.4; in test [2] (384-well format, cutoff for positive-scoring molecules 3-fold increase, read-out: AK-based Prestwick Library Screening Results, K. pneumoniae (increase in extracellular AK activity)), 0.6; in test [3] (384-well format, cutoff for positive-scoring molecules 3-fold increase, read-out: AK-based Prestwick Library Screening Results, P. aeruginosa (increase in extracellular AK activity)), 0.6; in test [4] (384-well format, cutoff for positive-scoring molecules 3-fold increase, read-out: AK-based Prestwick Library Screening Results, E. cloacae (increase in extracellular AK activity)) it was 0.7; in test [5] (384-well format, cutoff for positive-scoring molecules 3-fold increase, read-out: AK-based Prestwick Library Screening Results, S. aureus (increase in extracellular AK activity)), 0.5; in test [6] (384-well format, cutoff for positive-scoring molecules 3-fold increase, read-out: AK-based Prestwick Library Screening Results, E. faecium (increase in extracellular AK activity)), 0.9. Also, in test [7] (384-well format, cutoff for positive-scoring molecules 3-fold increase, read-out: AK-based Prestwick Library Screening Results, E. coli (increase in extracellular AK activity)), the fold induction at 50 µM amounted to 0.7.

These data come from patent publication US10004701B2, “Methods and compositions for treating infection” (UNIVERSITY OF ROCHESTER, priority 2012, dated 2018).
